Test results: patent US20160257697A1, “THIOPHENE-SUBSTITUTED TETRACYCLIC COMPOUNDS AND METHODS OFUSE THEREOF FOR THE TREATMENT OF VIRAL DISEASES” (priority 2013, published 2016)
pIC50: −log10 of the molar value. Like-named read-outs stand apart in the source and are kept apart here.

How the values were obtained:
Experiment in all cases: microbe, parasite or virus in culture
Type in all cases: cell-based, Hepatitis C virus (HCV)
[1] = test system: HCV replicon 1AQ30D; details: Replicon Assay B; for IC50: read-out: 1A Q30D IC50 (nM), replicon 1AQ30D
Procedure: (§1) In an alternate assay (“Replicon Assay B”), 1000 cells were seeded per well in a 384-well collagen coated black plate from Greiner bio-one (Cat #781946) in 5% FBS. Inhibitors of this invention were added at 24 h post-seeding, and the plates were incubated for 3 days. Cells were subsequently lysed with Qiagen lysis buffer (Cat #1062731) to extract the RNA. HCV replicon RNA level was measured by real-time PCR using the RNA-to-CT kit from Applied Biosystem (Cat #4392656) and genotype-specific primers and probes. The amplicon was located within NS5B. […] (SEQ. ID NO. 2); the probe sequence was FAM-labeled […] (SEQ. ID NO. 3).
(§2) The real-time RT-PCR reactions were run on ABI PRISM 7900HT or Viia7 Sequence Detection System using the following program: 48° C. for 30 minutes, 95° C. for 10 minutes, 40 cycles of 95° C. for 15 sec, 60° C. for 1 minutes.
(§3) Data for replicons 1A, 1AY93H and 2B were obtained using Replicon Assay A and data for replicons 1AQ30D and 1B were obtained using Replicon Assay B.

[2] = test system: HCV replicon 1B; details: Replicon Assay B
Procedure: as §1, §2, §3

[3] = test system: HCV replicon 2B; details: Replicon Assay A; for IC50: read-out: 2B IC50 (nM), replicon 2B
Procedure, shortened: (§4)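 Replicon cells incubated with compound for 3 days in medium with 5% FBS and 0.5% DMSO final. Replicon RNA measured in lysates by multiplex real-time RT-PCR (Neo set) against cyclophilin control, quantified from standard curves of Ct versus log ng replicon total RNA.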

[4] = test system: HCV replicon 1AY93H; details: Replicon Assay A; for IC50: read-out: 1A Y93H IC50 (nM), replicon 1AY93H
Procedure, shortened: as §4

[5] = test system: HCV replicon 1A; details: Replicon Assay A
Procedure, shortened: as §4

[6] = Hepatitis C virus, read-out: 1A Q30D IC50, HCV replicon 1A Q30D
[7] = Hepatitis C virus, HCV replicon 1B
[8] = Hepatitis C virus, read-out: 2B IC50, HCV replicon 2B
[9] = Hepatitis C virus, read-out: 1A Y93H IC50, HCV replicon 1A Y93H
[10] = HCV replicon 2B, read-out: 2B IC50
[11] = read-out: 2B IC50, HCV replicon 2B
[12] = read-out: 1A Y93H IC50, HCV replicon 1A Y93H
[13] = read-out: 1A Y93H IC50, replicon 1AY93H
[14] = Hepatitis C virus, HCV replicon 1A

## COC(=O)N[C@H](C(=O)N1CCC[C@H]1c1ncc(-c2cc(F)c3c(c2)OC(c2ccc(C4CC4)s2)n2c-3cc3cc(-c4cnc([C@@H]5C[C@H]6C[C@H]6N5C(=O)[C@@H](NC(=O)OC)C5CCOCC5)[nH]4)ccc32)[nH]1)C(C)C (some centres unmarked) [Compound 653]
[1]; [6]
  pIC50: 11.04
[2]; [7]
  pIC50: 11.81
[3]; [8]
  pIC50: 11.84
[4]; [9]
  pIC50: 11.87

## COC(=O)NC(C(=O)N1CCCC1c1ncc(-c2cc(F)c3c(c2)OC(c2ccc(C4CC4)s2)n2c-3cc3cc(-c4cnc(C5CCCN5C(=O)C(NC(=O)OC)C5CCOC(C)C5)[nH]4)ccc32)[nH]1)C(C)C (mixture of isomers) [Compound 849]
[1]; HCV replicon 1A Q30D, read-out: 1A Q30D IC50
  pIC50: 10.54
[2]; HCV replicon 1B
  pIC50: 11.54
[5]; HCV replicon 1A
  pIC50: 11.64
[3]; [10]
  pIC50: 11.30

## COC(=O)NC(C(=O)N1CCC[C@H]1c1ncc(-c2ccc3c(c2)cc2n3C(c3ccc(C4CC4)s3)Oc3cc(-c4cnc([C@@H]5CCCN5C(=O)[C@@H](NC(=O)OC)C(C)C)[nH]4)cc(F)c3-2)[nH]1)C1CC(C)(C)OC(C)(C)C1 (single isomer, unassigned) [Compound 421]
[1]; [6]
  pIC50: 9.90
[5]; HCV replicon 1A
  pIC50: 11.64
[3]; [11]
  pIC50: 10.74
[4]; [12]
  pIC50: 10.90

## COCC(C)(C)c1ccc(C2Oc3cc(-c4cnc([C@@H]5CCCN5C(=O)[C@@H](NC(=O)OC)C(C)C)[nH]4)cc(F)c3-c3cc4cc(-c5cnc([C@@H]6CCCN6C(=O)[C@@H](NC(=O)OC)C(C)C)[nH]5)ccc4n32)s1 (single isomer, unassigned) [Compound 399]
[1]; Hepatitis C virus
  IC50: 0.292 nM
[5]; Hepatitis C virus, replicon 1A
  pIC50: 11.57
[3]; read-out: 2B IC50, replicon 2B
  pIC50: 9.56
[4]; [13]
  pIC50: 10.84

## COC(=O)N[C@H](C(=O)N1CCC[C@H]1c1ncc(-c2cc(F)c3c(c2)OC(c2ccc(C(C)C)s2)n2c-3cc3cc(-c4cnc([C@@H]5CCCN5C(=O)[C@@H](NC(=O)OC)C5CCOCC5)[nH]4)ccc32)[nH]1)C(C)C (single isomer, unassigned) [Compound 345]
[1]; Hepatitis C virus
  IC50: 0.0235 nM
[3]; read-out: 2B IC50, replicon 2B
  pIC50: 11.14
[4]; [13]
  pIC50: 11.92

## CCCc1ccc(C2Oc3cc(-c4cnc([C@@H]5CCCN5C(=O)[C@@H](NC(=O)OC)C(C)C)[nH]4)cc(F)c3-c3cc4cc(-c5cnc([C@@H]6CCCN6C(=O)[C@@H](NC(=O)OC)C(C)C)[nH]5)ccc4n32)s1 (some centres unmarked) [Compound 34]
[1]; Hepatitis C virus
  IC50: 0.16 nM
[5]; Hepatitis C virus, replicon 1A
  pIC50: 11.55
[3]; Hepatitis C virus
  IC50: 0.1 nM
[4]; Hepatitis C virus
  IC50: 0.005 nM

## COC(=O)N[C@H](C(=O)N1CCC[C@H]1c1ncc(-c2cc(F)c3c(c2)OC(c2ccc(C4CC4)s2)n2c-3cc3cc(-c4cnc([C@@H]5CCCN5C(=O)[C@@H](NC(=O)OC)C(C)C)[nH]4)ccc32)[nH]1)C(C)C (single isomer, unassigned) [Compound 5]
[1]; Hepatitis C virus
  IC50: 28.3 nM
[5]; Hepatitis C virus, replicon 1A
  pIC50: 11.34
[3]; Hepatitis C virus
  IC50: 2.08 nM
[4]; Hepatitis C virus
  IC50: 0.95 nM

## COC(=O)NC(C(=O)N1CCC[C@H]1c1ncc(-c2ccc3c(c2)cc2n3C(c3ccc(C4CC4)s3)Oc3cc(-c4cnc([C@@H]5C[C@@H](F)CN5C(=O)[C@@H](NC(=O)OC)C(C)C)[nH]4)cc(F)c3-2)[nH]1)C(C)(C)F (single isomer, unassigned) [Compound 114]
[2]; Hepatitis C virus, replicon 1B
  pIC50: 11.62
[5]; replicon 1A
  pIC50: 11.89
[3]; read-out: 2B IC50, replicon 2B
  pIC50: 9.70
[4]; [13]
  pIC50: 11.70

## COC(=O)NC(C(=O)N1CCC[C@H]1c1ncc(-c2cc(F)c3c(c2)OC(c2ccc(C4CC4)s2)n2c-3cc3cc(-c4cnc([C@@H]5C[C@H]6C[C@H]6N5C(=O)[C@@H](NC(=O)OC)C(C)C)[nH]4)ccc32)[nH]1)C(C)(C)F (some centres unmarked) [Compound 97]
[2]; Hepatitis C virus, replicon 1B
  pIC50: 11.62
[5]; Hepatitis C virus, replicon 1A
  pIC50: 11.96
[3]; Hepatitis C virus
  IC50: 0.036 nM
[4]; Hepatitis C virus
  IC50: 0.008 nM

## COC(=O)N[C@H](C(=O)N1CCC[C@H]1c1ncc(-c2ccc3c(c2)O[C@@H](c2cc4c(s2)CCC4)n2c-3cc3cc(-c4cnc([C@@H]5CCCN5C(=O)[C@@H](NC(=O)OC)C(C)C)[nH]4)ccc32)[nH]1)C(C)C (single isomer, unassigned) [Compound 600]
[2]; [7]
  pIC50: 9.73
[5]; [14]
  pIC50: 10.59
[3]; [8]
  pIC50: 8.96
[4]; [9]
  pIC50: 9.24

## CCc1ccc(C2Oc3cc(-c4cnc([C@@H]5CCCN5C(=O)C(NC(=O)OC)C5CCOC(C)(C)C5)[nH]4)cc(F)c3-c3cc4cc(-c5cnc([C@@H]6CCCN6C(=O)C(NC(=O)OC)C6CCOC(C)(C)C6)[nH]5)ccc4n32)s1 (single isomer, unassigned) [Compound 291]
[2]; Hepatitis C virus, replicon 1B
  pIC50: 11.64
[5]; replicon 1A
  pIC50: 11.62
[3]; read-out: 2B IC50, replicon 2B
  pIC50: 10.55
[4]; [13]
  pIC50: 9.55

## COC(=O)N[C@H](C(=O)N1C[C@H](F)C[C@H]1c1cnc(-c2ccc3c(c2)cc2n3C(c3cc4ccccc4s3)Oc3cc(-c4cnc([C@@H]5C[C@@H](F)CN5C(=O)[C@@H](NC(=O)OC)C(C)C)[nH]4)ccc3-2)[nH]1)C(C)C (single isomer, unassigned) [Compound 806]
[2]; HCV replicon 1B
  pIC50: 11.05
[5]; HCV replicon 1A
  pIC50: 10.39
[3]; [11]
  pIC50: 7.37
[4]; [12]
  pIC50: 10.64

## COC(=O)NC(C(=O)N1CCC[C@H]1c1ncc(-c2cc(F)c3c(c2)OC(c2ccc(C4CC4)s2)n2c-3cc3cc(-c4cnc([C@@H]5CCCN5C(=O)[C@@H](NC(=O)OC)C5CCOCC5)[nH]4)ccc32)[nH]1)C(C)(C)F (single isomer, unassigned) [Compound 169]
[2]; Hepatitis C virus, replicon 1B
  pIC50: 11.47
[5]; replicon 1A
  pIC50: 11.92
[3]; read-out: 2B IC50, replicon 2B
  pIC50: 10.12
[4]; [13]
  pIC50: 10.35

## COC(=O)NC(C(=O)N1CCC[C@H]1c1ncc(-c2ccc3c(c2)cc2n3C(c3cc4c(s3)CCC4)Oc3cc(-c4cnc([C@@H]5CCCN5C(=O)[C@@H](NC(=O)OC)C(C)C)[nH]4)cc(C)c3-2)[nH]1)C1CCOC(C)(C)C1 (single isomer, unassigned) [Compound 852]
[2]; [7]
  pIC50: 11.60
[5]; [14]
  pIC50: < 11.52
[3]; [11]
  pIC50: 10.24
[4]; [12]
  pIC50: 8.88

## COC(=O)NC(C(=O)N1CCC[C@H]1c1ncc(-c2ccc3c(c2)cc2n3C(c3ccc(CC4CC4)s3)Oc3cc(-c4cnc([C@@H]5CCCN5C(=O)[C@@H](NC(=O)OC)C(C)C)[nH]4)cc(F)c3-2)[nH]1)C1CCOC(C)(C)C1 (single isomer, unassigned) [Compound 409]
[2]; HCV replicon 1B
  pIC50: 11.60
[5]; HCV replicon 1A
  pIC50: 11.77
[3]; [11]
  pIC50: 9.74
[4]; [12]
  pIC50: 9.13

## COC(=O)NC(C(=O)N1CCC[C@H]1c1ncc(-c2ccc3c(c2)cc2n3C(c3ccc(CC4CC4)s3)Oc3cc(-c4cnc([C@@H]5CCCN5C(=O)[C@@H](NC(=O)OC)C(C)C)[nH]4)cc(F)c3-2)[nH]1)C1CCOC(C)(C)C1 (single isomer, unassigned) [Compound 407]
[2]; [7]
  pIC50: 11.72
[5]; HCV replicon 1A
  pIC50: 11.77
[3]; [11]
  pIC50: 9.58
[4]; [12]
  pIC50: 9.59

## COC(=O)N[C@H](C(=O)N1CCC[C@H]1c1ncc(-c2cc(F)c3c(c2)OC(c2csc(C4CC4)c2)n2c-3cc3cc(-c4cnc([C@@H]5CCCN5C(=O)[C@@H](NC(=O)OC)C(C)C)[nH]4)ccc32)[nH]1)C(C)C (single isomer, unassigned) [Compound 322]
[1]; Hepatitis C virus
  IC50: 0.82 nM
[3]; Hepatitis C virus
  IC50: 0.29 nM
[4]; [13]
  pIC50: 10.53

## CCOC(C)[C@H](NC(=O)OC)C(=O)N1CCC[C@H]1c1ncc(-c2cc(F)c3c(c2)OC(c2cc(C)c(C)s2)n2c-3cc3cc(-c4cnc([C@@H]5CCCN5C(=O)[C@@H](NC(=O)OC)C(C)C)[nH]4)ccc32)[nH]1 (single isomer, unassigned) [Compound 79]
[2]; Hepatitis C virus, replicon 1B
  pIC50: 11.47
[5]; Hepatitis C virus, replicon 1A
  pIC50: 11.68
[3]; read-out: 2B IC50, replicon 2B
  pIC50: 9.49
[4]; [13]
  pIC50: 9.85

## COC(=O)N[C@H](C(=O)N1CCC[C@H]1c1ncc(-c2cc(F)c3c(c2)OC(c2ccc(C4CC4)s2)n2c-3c(C)c3cc(-c4cnc([C@@H]5CCCN5C(=O)[C@@H](NC(=O)OC)C(C)C)[nH]4)ccc32)[nH]1)C(C)C (single isomer, unassigned) [Compound 841]
[2]; HCV replicon 1B
  pIC50: 11.77
[5]; HCV replicon 1A
  pIC50: 11.59
[3]; [10]
  pIC50: 9.28
[4]; HCV replicon 1A Y93H, read-out: 1A Y93H IC50
  pIC50: 9.07
